In patent US7754445B2, “Method for the enzymatic production of a curing agent and its fluid state” (TMI Europe, priority 2001, dated 2010):

Assay: monitoring the stability of the solution (hypothiocyanite concentration in water leaving the reactor)
Assay type: physicochemical
From the text: The hypothiocyanite ions (OSCN^−) are able to react with the sulfhydryl groups of a 5,5′-dithiobis (2-nitrobenzoic acid) molecule which has previously been reduced in the presence of an excess of sodium borohydride.
This reduced molecule absorbs light at a wavelength of 412 nm.
When the hypothiocyanite ions (OSCN^−) oxidize the sulfhydryl groups, the absorbance at 412 nm decreases in proportion to the quantity of ions which are present in the sample, thereby enabling them to be quantified.
The methods described above are used to monitor the change in the concentration of hypothiocyanite ion, i.e. OSCN^−, in solutions leaving the reactor, the results of which are obtained are illustrated in FIGS. 3 and 4, which depict the curve for the changes in the concentration of hypothiocyanite ion, OSCN^−, in the water leaving the reactor over a period of 1 day (FIGS. 4) and 4 days (FIG. 3).

concentration of OSCN^− (after 10 hours (FIG. 4)): 500 mM | fall in concentration of OSCN^− (after 20 hours (FIG. 4)): 50% | residual concentration of hypothiocyanite ion, relative to the initial concentration (after 80 hours (FIG. 3)): 16% | concentration of OSCN^− (initial, solution leaving the reactor (FIG. 4)): 600 mM
SMILES: N#CSO [OSCN^−, hypothiocyanite ion]
